Measured values reported in publication PMC12373846, “Hemoglobin as a pseudoperoxidase and drug target for oxidative stress-related diseases” (Signal Transduction and Targeted Therapy, 2025).

Columns and labels:
[1] = ROS-Glo H2O2 assay without HRP or Hb; format: biochemical; conditions: ROS-Glo assay lacking HRP/Hb
Description: Hb (Sigma‒Aldrich, H7379), H2O2 (Sigma‒Aldrich, H1009), and Amplex Red reagents (Invitrogen, A12222) were obtained for the study. A 4 μM H2O2 solution was prepared in 50 mM sodium phosphate buffer (pH 7.2). Then, 49 μl of this mixture was mixed with 1 μl of the test compound in DMSO or distilled water. The mixture was combined with an assay mixture of Amplex Red reagent (20 mM stock to 0.1 mM) and HRP (200 U/ml stock to 0.2 U/ml) and added to the wells at 50 μl/well. After a 60-min incubation at 37 °C, resorufin production was quantified via a microplate fluorescence reader (SpectraMax iD5, Molecular Devices) at ex/em = 535/580 nm. The H2O2-decomposing activity was estimated via the following equation: (sample fluorescence-blank fluorescence)/(control […]-blank fluorescence) × 100. For the ROS-Glo assay, the H2O2 substrate solution and ROS-Glo detection solution were prepared according to the manufacturer’s instructions. 10 μM H2O2 and drugs were prepared as in the Amplex Red assay, with HRP, Hb, CAT, or GPx added as needed. The mixture was added to the wells at 100 μl/well and incubated for 60 min at 37 °C. H2O2 substrate solution was added, and the mixture was incubated at room temperature for 30 min. After the H2O2 substrate solution was added and incubated at room temperature for 30 min, the ROS-Glo detection solution was added, and the mixture was incubated for 15 min. Luminescence was measured via iD5 microplate readers. The H2O2-decomposing activity was estimated via the following equation: (sample luminescence-blank luminescence)/(control luminescence-blank luminescence) × 100. The U/ml was calculated on the basis of the amount of H2O2 reduced by Hb during the reaction, using μg/ml and U/mg.

APP/PS1 mice [2] = assay: Passive avoidance test, APP/PS1 mice; format: in vivo, mouse; conditions: 3 mg/kg/day i.p., 16 times, Fig. S10b
Description: (§1) For an animal model of AD, both sexes of 10- to 18-month-old APP/PS1 mice were maintained and used as previously described.[76],[77] To test the effects of novel H2O2-decomposing enhancers in the AD model, the mice were treated by i.p. injection with KDS12008 (3 mg/kg/day), KDS12017 (3 mg/kg/day), or KDS12025 (3 or 10 mg/kg/day) once per day for 1 or 2 weeks, depending on the experimental protocol. All drugs were dissolved in 200 μl of saline, and the amount of each drug was calculated on the basis of the weight (kg) of the mouse. Moreover, KDS12025 (3 mg/kg/day) was orally administered to the AD model for 2 weeks ad libitum.
Sufficiently handled mice were ready before the PAT. The mice were placed in a two-compartment (light and dark) shuttle chamber with a shock generator (Ugo Basile, Italy). On the first day, the mice were placed in the light compartment for acquisition. The mice were allowed to explore the light compartment for 60 s, after which the door separating the light and dark compartments was raised to allow the mice to enter the dark compartment. When the mice entered the dark compartment, the separating door was closed immediately, and an electrical foot shock (0.5 mA, 2 s duration) was delivered through the floor grid. The mice were then moved back to the home cage, and the retention trial was conducted 24 h after the acquisition. On the second day, the mice were again placed in the light compartment for the retention trial. After 60 s, the door was raised to allow the mice to enter the dark compartment. The latency to step through the dark compartment before and after the electric shock was recorded for up to 540 s.

APP/PS1 mice [3] = assay: Immunohistochemistry of hippocampus, APP/PS1 mice; format: in vivo, mouse; conditions: 3 mg/kg/day i.p.
Description: as §1
The mice were deeply anesthetized with vaporized 1% isoflurane and placed into stereotaxic frames (RWD Life Science, China). Following an incision on the midline of the scalp, a hole was drilled into the skull above the hippocampus. AAV-GFAP104-GFP or AAV-GFAP104-DTR-GFP was bilaterally microinjected into the hippocampal CA1 region (AP, −2.0 mm; ML, ±1.5 mm; DV, −1.65 mm from the bregma). Diphtheria toxin (2 mg/ml) was administered for 16 days as previously described.[77] For shRNA knockdown, AAV-pSicoR-Hbβ-shRNA-mCherry or AAV-pSicoR-Sc-shRNA-mCherry was microinjected into the same coordinate system. A total of 0.8 µl of the virus was injected via a syringe pump (KD Scientific, USA). The injection procedures were implemented before 5 weeks of the experiments. For cell type-specific knockdown, AAV-pSico-Hbβ-shRNA-GFP or AAV-pSico-Sc-shRNA-GFP was combined with either AAV-CaMKII-Cre-mCherry for neuronal targeting or AAV-GFAP-Cre-mCherry for astrocyte targeting. The viruses were bilaterally injected into the hippocampus and substantia nigra via the same stereotaxic coordinates and injection procedures. All viruses used in this study were produced at the Institute for Basic Science virus facility (IBS virus facility, Korea). To investigate the effects of 0.1 mg/kg/day KDS12025, GiD mice were injected with diphtheria toxin (2 mg/ml) daily for 16 days. Concurrently, KDS12025 was administered ad libitum (0.1 mg/kg/day) during the same period.
The mice were deeply anesthetized with 2% isoflurane and positioned on the operating table. After the abdomen was opened and the heart was exposed, the […] were perfused with saline, followed by 4% paraformaldehyde (PFA) in 0.1 M PBS. The mice were decapitated, and the brains were excised from the skull. Excised brains were postfixed in 4% PFA overnight at 4 °C and dehydrated in 30% sucrose for 48 h. Coronal hippocampal sections were cut at 30 µm thickness with a cryostat and stored in storage solution. For the ALS experiments, lumbar spinal cords (L2–L5) were also carefully dissected and immediately immersed in 4% PFA for postfixation. The sections were fully washed in 0.1 M PBS and incubated for 1 h in blocking solution (0.3% Triton X-100, 2% donkey and goat serum in 0.1 M PBS). Next, a mixture of primary antibodies in the blocking solution was used for immunostaining on a shaker overnight at 4 °C. The sections were washed in PBS three times. After washing, the sections were incubated with the corresponding fluorescent secondary antibodies for 1 h at RT. DAPI staining was performed by adding a DAPI solution (1:2000) during the second washing step. After the washing step was complete, the sections were mounted on cover slides with mounting medium. A series of fluorescence images were obtained with an LSM900 (Zeiss, Germany) confocal microscope or Lattice SIM Elyra 7 (Zeiss, Germany). The 15–22 μm Z stack images in 1–2 μm steps were processed for image analysis, which was performed via the ImageJ (NIH, US) and ZEN digital imaging for light microscopy blue system (Zeiss, Germany) programs.

| Compound | H2O2-decomposing activity without HRP or Hb [1] | PAT transfer latency, acquisition (APP/PS1 mice [2]) | PAT transfer latency, retrieval (APP/PS1 mice [2]) | mean intensity of Iba1 in the hippocampus (APP/PS1 mice [3]; Fig. S10e) | mean intensity of GFAP in the hippocampus (APP/PS1 mice [3]; Fig. S10d) |
| --- | --- | --- | --- | --- | --- |
| O=C(O)c1cc(NCCc2ccc(C(F)(F)F)cc2)ccc1O [HTPEB, 2-hydroxy-5-[2-(4-trifluoromethyl-phenyl)-ethylamino]-benzoic acid, reference compound] | no activity |  |  |  |  |
| CN(C)c1ccc(NCCc2ccc(C(F)(F)F)cc2)cc1.Cl [KDS12008, N^1,N^1-dimethyl-N^4-(4-(trifluoromethyl)phenethyl)benzene-1,4-diamine hydrochloride salt] |  | 44.42±13.85 | 233.6±102.3 | 1562±64.27 | 2063±93.76 |
